Data from EP0039857A1, “Preparation for the care of the skin” (Henkel Kommanditgesellschaft auf Aktien, priority 1980, dated 1981).

Legend:
[1] = tested on: Esterase aus Schweineleber (Carboxylic-esterhydrolase EC 3.1.1.1); assay: Enzyme inhibition test, esterase (acidimetric comparison with control); format: biochemical, Schwein; conditions: 2 500 ppm test substance; substrate Citronensäuretriethylester; enzyme 1 mg in 16 ml
Experimental: (§1) Zur Feststellung der enzyminhibierenden Wirksamkeit wurde folgende Testmethodik verwendet. Es wurden jeweils 0,2 Mol in 10 bis 20 ml physiologischer NatriumchloridLösung Substrat eingesetzt. Als Testenzyme dienten: • Esterase aus Schweineleber (Carboxylic-esterhydrolase EC 3.1.1.1) • Spezifische Aktivität: circa 100 U/mg, Einsatzkonzentration: 1 mg in 16 ml Lösung. • Als Substrat diente Citronensäuretriethylester. • Lipase aus Rhizopus arrhizus (Triacylglyceroacylhydrolase EC 3.1.1.3) • Spezifische Aktivität: circa 1 200 U/mg, Einsatzkonzentration: 0,25 mg in 20 ml Lösung • Als Substrat diente Olivenöl. Zur Stabilisierung der Emulsion wurde Natriumdesoxycholat und Gummi arabicum verwendet. Die Hemmwerte wurden bestimmt durch azidimetrischen Vergleich der Kontrolle mit der durch die Prüfsubstanz gehemmten Reaktion und in % ausgedrückt. Als Konzentration für die Hemmsubstanzen wurden 2 500 ppm gewählt.

[2] = biological target: T1, Lipase aus Rhizopus arrhizus (Triacylglyceroacylhydrolase EC 3.1.1.3) (Rhizopus oryzae, UniProt P61872); assay: Enzyme inhibition test, lipase (acidimetric comparison with control); format: biochemical; conditions: read-out: Hemmwerte in % gegen Lipase; for inhibition at 2500 ppm: substrate Olivenöl, enzyme 0,25 mg in 20 ml
T1 construct: Lipase aus Rhizopus arrhizus (Triacylglyceroacylhydrolase EC 3.1.1.3); host or cells: Rhizopus arrhizus (natural producer)
T1 sequence (P61872 96-392): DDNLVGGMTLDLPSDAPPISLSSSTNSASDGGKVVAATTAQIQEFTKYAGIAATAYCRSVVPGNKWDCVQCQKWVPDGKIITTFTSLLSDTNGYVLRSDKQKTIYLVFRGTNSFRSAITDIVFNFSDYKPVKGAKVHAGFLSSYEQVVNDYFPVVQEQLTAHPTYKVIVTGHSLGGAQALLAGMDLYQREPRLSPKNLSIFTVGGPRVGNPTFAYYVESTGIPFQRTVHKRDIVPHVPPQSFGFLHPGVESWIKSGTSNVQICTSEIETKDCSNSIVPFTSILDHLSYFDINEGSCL
Experimental: as §1

SMILES	Hemmwerte in % gegen Esterase [1] [%]	inhibition at 2500 ppm [2] [%]	inhibition at 500 ppm [2] [%]
CCN(CC)C(=O)Cc1ccc(OC)c(OC)c1 [Produkt B, 3,4-Dimethoxy-phenylacet-diethylamid]	60	10	
CCN(CC)C(=O)C(C)(C)Oc1ccc(Cl)cc1 [Produkt D, 2-(p-Chlorphenoxy)-2-methylpropionsäure-diethylamid]	11	52	
CCOC(=O)C(O)(c1ccccc1)c1ccccc1 [Produkt H, Benzilsäure-ethylester]	54		28
CCN(CC)C(=O)COc1ccc(Cl)cc1 [Produkt F, p-Chlor-phenoxyacet-diethylamid]	65	10	
CCN(CC)C(=O)COc1ccc(C)c(C)c1 [Produkt G, 3,4-Dimethyl-phenoxyacet-diethylamid]	48	12	
CCN(CC)C(=O)CC(c1ccccc1)c1ccccc1 [Produkt C, 3,3-Diphenyl-propionsäure-diethylamid]	57	12	
CCN(CC)C(=O)C(C)(C)Sc1ccc(Cl)cc1 [Produkt E, 2-(p-Chlor-phenylthio)-2-methylpropionsäure-diethylamid]	30	59	
CCN(CC)C(=O)Cc1ccc(Cl)cc1 [Produkt A, p-Chlorphenylacet-diethylamid]	77	23	
